These results are taken from patent US8999981B2, “3-amido-pyrrolo[3,4-C]pyrazole-5(1H, 4H,6H) carbaldehyde derivatives” (Pfizer Inc., priority 2007, dated 2015).

In this experiment the target is Protein Kinase C beta 2 (PKCβII) (Homo sapiens (Human), UniProt P05771). The experiment can be described thus: PKCβII coupled PK/LDH spectrophotometric kinase assay. The class given is biochemical. The settings on record: apparent Ki, ATP-competitive model (Morrison equation); 0.1 mM ATP, 30° C.; read-out: PKCb Ki. On the procedure: This transfer is coupled to the oxidation of β-NADH through the activities of Pyruvate Kinase (PK) and Lactate Dehydrogenase (LDH). β-NADH conversion to NAD+ is monitored by the decrease in absorbance at 340 nm (e=6.22 cm^−1 mM^−1) using a Molecular Devices SPECTRA max PLUS spectrophotometer.
Chain of Protein Kinase C beta 2 (PKCβII) (P05771 other isoform, or with tags, fused parts or gaps): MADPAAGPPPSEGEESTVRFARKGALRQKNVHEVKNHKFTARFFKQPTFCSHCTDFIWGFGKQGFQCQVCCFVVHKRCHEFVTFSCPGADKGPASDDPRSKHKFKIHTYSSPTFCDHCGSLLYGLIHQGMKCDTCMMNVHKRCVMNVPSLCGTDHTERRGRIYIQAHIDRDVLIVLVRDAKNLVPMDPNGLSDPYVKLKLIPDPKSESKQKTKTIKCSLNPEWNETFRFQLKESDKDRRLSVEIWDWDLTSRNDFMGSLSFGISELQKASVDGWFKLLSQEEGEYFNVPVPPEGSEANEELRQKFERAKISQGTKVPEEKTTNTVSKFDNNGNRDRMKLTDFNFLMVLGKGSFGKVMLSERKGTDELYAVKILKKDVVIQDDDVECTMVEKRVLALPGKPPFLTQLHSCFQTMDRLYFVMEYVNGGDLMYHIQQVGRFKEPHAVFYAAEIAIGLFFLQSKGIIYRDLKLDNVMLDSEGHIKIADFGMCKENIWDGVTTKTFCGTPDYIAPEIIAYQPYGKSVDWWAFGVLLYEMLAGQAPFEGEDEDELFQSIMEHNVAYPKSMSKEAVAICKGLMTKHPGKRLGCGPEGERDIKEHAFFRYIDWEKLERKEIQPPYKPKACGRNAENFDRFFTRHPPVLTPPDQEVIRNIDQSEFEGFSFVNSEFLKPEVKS
A typical assay was carried out on a 96-well, clear microtiter plate in a Molecular Devices spectrophotometer for 20 minutes at 30° C. in 0.1 mL of assay buffer containing 50 mM HEPES, pH 7.4, 5 nM PKC, 23 units of pyruvate kinase, 33 units of lactate dehydrogenase, 0.15 mM peptide, 0.1 mM ATP, 1 mM DTT, 4 mM PEP, 8 mM MgCl2, 0.3 mM NADH, 60 mM CaCl2, 10 mg/mL PS, 50 ng/mL PMA, 7.5% DMSO and from about 10,000 nM to 0.169 nM compound inhibitor. Stock solutions of 3-sn-phosphatidyl-L-serine (PS) and phorbol-12-myristate-13-acetate (PMA) were sonicated for 30 seconds just prior to addition to assay buffer and assays were initiated by the addition of 100 μM ATP.
Enzyme turnover values (kcat) were calculated according to […], where [E] is the total enzyme concentration. Enzyme inhibition constants (apparent K values) were determined by fitting initial velocities at variable inhibitor concentrations to a model for ATP competitive inhibition based on the Morrison equation). Morrison, J. F., Biochim. Biophys Acta 185: 269-286 (1969).
For the compound `C[C@H]1CN2CCC[C@H]2CN1C(=O)N1Cc2c(NC(=O)c3ccccn3)n[nH]c2C1(C)C` [Example A1, N-(6,6-Dimethyl-5-((3S,8aS)-3-methyl-octahydropyrrolo[1,2-a]pyrazine-2-carbonyl)-1,4,5,6-tetrahydropyrrolo[3,4-c]pyrazol-3-yl)picolinamide], the Ki was 29.2 nM.

For the compound `CC1(C)c2[nH]nc(NC(=O)c3cccc(Oc4ccccc4)c3)c2CN1C(=O)N1C[C@@H]2CCCN2C[C@@H]1Cc1ccccc1` [Example A3], the Ki is 36.8 nM.

In the case of `CN1CCN(C(=O)N2Cc3c(n[nH]c3NC(=O)c3cc4ccccc4s3)C2(C)C)[C@@H](Cc2ccccc2)C1` [Example A4], the Ki amounted to 146 nM.

`CN1CCN(C(=O)N2Cc3c(NC(=O)c4cccs4)n[nH]c3C2(C)C)[C@@H](Cc2ccccc2)C1` [Example A6]: the Ki stood at 187 nM.

With `CN1CCN(C(=O)N2Cc3c(NC(=O)c4cc5ccccc5o4)n[nH]c3C2(C)C)[C@@H](Cc2ccccc2)C1` [Example A7], the Ki stood at 124 nM.

On to `CN1CCN(C(=O)N2Cc3c(NC(=O)c4ccc5ccccc5n4)n[nH]c3C2(C)C)[C@@H](Cc2ccccc2)C1` [Example A8], for which the Ki was 78.1 nM.

As to `CN1CCN(C(=O)N2Cc3c(NC(=O)c4cccc(Oc5ccccc5)c4)n[nH]c3C2(C)C)C(c2ccccc2)C1` (stereo not shown) [Example A9], the Ki worked out at 159 nM.

In the case of `CC1(C)c2[nH]nc(NC(=O)c3cccc(Oc4ccccc4)c3)c2CN1C(=O)N1CCNCC1c1ccccc1` (stereo not shown) [Example A10], the Ki came to 55.9 nM.

Consider `CC1(C)c2[nH]nc(NC(=O)c3ccc4ccccc4n3)c2CN1C(=O)N1CCN2CCCC2C1` (stereo not shown) [Example A11], for which the Ki is 73.9 nM.

As for `CC(C)C[C@H]1CN2CCC[C@H]2CN1C(=O)N1Cc2c(NC(=O)c3ccc4ccccc4n3)n[nH]c2C1(C)C` [Example A12], the Ki is 103 nM.

Take `CC1(C)c2[nH]nc(NC(=O)c3ccc4ccccc4n3)c2CN1C(=O)N1C[C@@H]2CCCN2C[C@@H]1Cc1ccccc1` [Example A13]: the Ki was 27.7 nM.

For `CC1(C)c2[nH]nc(NC(=O)c3ccc4ccccc4n3)c2CN1C(=O)N1C[C@@H]2CCCN2C[C@@H]1Cc1ccccc1` [Example A14], the Ki was 16.1 nM.

`CC1(C)c2[nH]nc(NC(=O)c3cccs3)c2CN1C(=O)N1CCN2CCCC2C1` (stereo not shown) [Example A15]: the Ki is 136 nM.

On to `CC1(C)c2[nH]nc(NC(=O)c3ccccc3)c2CN1C(=O)N1CCN2CCCC2C1` (stereo not shown) [Example A16], for which the Ki stood at 113 nM.

With `COc1cccc(C(=O)Nc2n[nH]c3c2CN(C(=O)N2C[C@@H]4CCCN4C[C@@H]2Cc2ccccc2)C3(C)C)c1` [Example A17], the Ki stood at 16.1 nM.

Regarding `COc1ccc(C(=O)Nc2n[nH]c3c2CN(C(=O)N2C[C@@H]4CCCN4C[C@@H]2Cc2ccccc2)C3(C)C)cc1` [Example A18], the Ki was 30.2 nM.

Take `CC1(C)c2[nH]nc(NC(=O)c3ccccc3Cl)c2CN1C(=O)N1C[C@@H]2CCCN2C[C@@H]1Cc1ccccc1` [Example A19]: the Ki was 91.4 nM.

On to `CC1(C)c2[nH]nc(NC(=O)c3cccc(F)c3F)c2CN1C(=O)N1C[C@@H]2CCCN2C[C@@H]1Cc1ccccc1` [Example A20], for which the Ki is 50.8 nM.

With `CC1(C)c2[nH]nc(NC(=O)c3cccc(Cl)c3)c2CN1C(=O)N1CCN2CCCC2C1` (stereo not shown) [Example A22], the Ki amounted to 28.9 nM.

As to `CC1(C)c2[nH]nc(NC(=O)c3cccc(Cl)n3)c2CN1C(=O)N1CCN2CCCC2C1` (stereo not shown) [Example A23], the Ki was 55.9 nM.

`CC1(C)c2[nH]nc(NC(=O)c3cccc(Cl)n3)c2CN1C(=O)N1CCN2CCCC2C1` (stereo not shown) [Example A24]: the Ki was 42.9 nM.

`CC1(C)c2[nH]nc(NC(=O)c3ccc4ccncc4n3)c2CN1C(=O)N1C[C@@H]2CCCN2C[C@@H]1Cc1ccccc1` [Example A25]: the Ki came to 28.8 nM.

Take `Cn1ccnc1C(=O)Nc1n[nH]c2c1CN(C(=O)N1C[C@@H]3CCCN3C[C@@H]1Cc1ccccc1)C2(C)C` [Example A26]: the Ki is 69.3 nM.

As for `C[C@H]1CN2CCC[C@H]2CN1C(=O)N1Cc2c(NC(=O)c3ccccc3)n[nH]c2C1(C)C` [Example A27], the Ki was determined as 35.1 nM.

As to `CCC[C@H]1CN2CCC[C@H]2CN1C(=O)N1Cc2c(NC(=O)c3ccccc3)n[nH]c2C1(C)C` [Example A28], the Ki came to 96.1 nM.

With `C[C@@H]1CN(C(=O)N2Cc3c(NC(=O)c4ccccn4)n[nH]c3C2(C)C)C[C@H](C)N1` [Example A29], the Ki worked out at 77.6 nM.

On to `C[C@H]1CN2CCC[C@H]2CN1C(=O)C1Cc2c(NC(=O)c3cc(Cl)cc(Cl)c3)n[nH]c2C1(C)C` (stereo partly shown) [Example A30], for which the Ki was 22.9 nM.

As for `C[C@H]1CN2CCC[C@H]2CN1C(=O)N1Cc2c(NC(=O)c3cccc(Cl)c3)n[nH]c2C1(C)C` [Example A31], the Ki was 21.3 nM.

With `C[C@H]1CN2CCC[C@H]2CN1C(=O)N1Cc2c(NC(=O)c3ccccc3F)n[nH]c2C1(C)C` [Example A32], the Ki worked out at 92.4 nM.

Regarding `C[C@H]1CN2CCC[C@H]2CN1C(=O)N1Cc2c(NC(=O)c3cc(Cl)ccc3F)n[nH]c2C1(C)C` [Example A33], the Ki is 82.7 nM.

Take `C[C@H]1CN2CCC[C@H]2CN1C(=O)N1Cc2c(NC(=O)c3ccc(F)c(Cl)c3)n[nH]c2C1(C)C` [Example A34]: the Ki was 21.9 nM.

For `C[C@H]1CN2CCC[C@H]2CN1C(=O)N1Cc2c(NC(=O)c3cc(C(F)(F)F)ccc3F)n[nH]c2C1(C)C` [Example A35], the Ki was determined as 176 nM.

Turning to `C[C@H]1CN2CCC[C@H]2CN1C(=O)N1Cc2c(NC(=O)c3ccc(Cl)c(Cl)c3)n[nH]c2C1(C)C` [Example A36], the Ki was 13.9 nM.

`C[C@H]1CN2CCC[C@H]2CN1C(=O)N1Cc2c(NC(=O)c3c(F)cccc3C(F)(F)F)n[nH]c2C1(C)C` [Example A37]: the Ki is 155 nM.

As for `C[C@H]1CN2CCC[C@H]2CN1C(=O)N1Cc2c(NC(=O)c3c(F)cccc3Cl)n[nH]c2C1(C)C` [Example A38], the Ki came out at 181 nM.

On to `COc1cccc(C(=O)Nc2n[nH]c3c2CN(C(=O)N2C[C@@H]4CCCN4C[C@@H]2C)C3(C)C)c1` [Example A39], for which the Ki amounted to 47.4 nM.

In the case of `COc1ccc(C(=O)Nc2n[nH]c3c2CN(C(=O)N2C[C@@H]4CCCN4C[C@@H]2C)C3(C)C)cc1` [Example A40], the Ki is 32.7 nM.

As for `C[C@H]1CN2CCC[C@H]2CN1C(=O)N1Cc2c(NC(=O)c3ccc(OC(F)(F)F)cc3)n[nH]c2C1(C)C` [Example A41], the Ki was 45.4 nM.

As for `Cc1cc(C(=O)Nc2n[nH]c3c2CN(C(=O)N2C[C@@H]4CCCN4C[C@@H]2C)C3(C)C)n(C)n1` [Example A42], the Ki was 67.9 nM.

Consider `C[C@H]1CN2CCC[C@H]2CN1C(=O)N1Cc2c(NC(=O)c3cncs3)n[nH]c2C1(C)C` [Example A43], for which the Ki was 135 nM.

On to `C[C@H]1CN2CCC[C@H]2CN1C(=O)N1Cc2c(NC(=O)c3cscn3)n[nH]c2C1(C)C` [Example A44], for which the Ki turned out to be 43.5 nM.

`C[C@H]1CN2CCC[C@H]2CN1C(=O)N1Cc2c(NC(=O)c3cccc(OC(F)(F)F)c3)n[nH]c2C1(C)C` [Example A45]: the Ki was found to be 104 nM.

Consider `CC1CN(C(=O)N2Cc3c(NC(=O)c4ccccn4)n[nH]c3C2(C)C)C(C)CN1` (stereo not shown) [Example A46], for which the Ki worked out at 36.2 nM.

Take `COc1ccc(C(=O)Nc2n[nH]c3c2CN(C(=O)N2C[C@@H]4CCCN4C[C@@H]2C)C3(C)C)nc1` [Example A47]: the Ki is 65.5 nM.

For `COc1cc(C(=O)Nc2n[nH]c3c2CN(C(=O)N2C[C@@H]4CCCN4C[C@@H]2C)C3(C)C)ccc1Cl` [Example A48], the Ki turned out to be 68.8 nM.

`C[C@H]1CN2CCC[C@H]2CN1C(=O)N1Cc2c(NC(=O)c3ccc(F)c(Cl)c3)n[nH]c2C1(C)C` [Example A49]: the Ki worked out at 53.6 nM.

In the case of `CCc1ccc(C(=O)Nc2n[nH]c3c2CN(C(=O)N2C[C@@H]4CCCN4C[C@@H]2C)C3(C)C)nc1` [Example A50], the Ki was determined as 82.1 nM.

Take `Cc1cc(C)nc(C(=O)Nc2n[nH]c3c2CN(C(=O)N2C[C@@H]4CCCN4C[C@@H]2C)C3(C)C)c1` [Example A51]: the Ki is 20.9 nM.

Regarding `Cc1cc(C(=O)Nc2n[nH]c3c2CN(C(=O)N2C[C@@H]4CCCN4C[C@@H]2C)C3(C)C)nn1C` [Example A52], the Ki was found to be 149 nM.

Take `CCc1ccnc(C(=O)Nc2n[nH]c3c2CN(C(=O)N2C[C@@H]4CCCN4C[C@@H]2C)C3(C)C)c1` [Example A53]: the Ki turned out to be 66.3 nM.

`C[C@H]1CN2CCC[C@H]2CN1C(=O)N1Cc2c(NC(=O)c3nc4ccccc4s3)n[nH]c2C1(C)C` [Example A54]: the Ki came out at 49.9 nM.

For `CC(C)c1csc(C(=O)Nc2n[nH]c3c2CN(C(=O)N2C[C@@H]4CCCN4C[C@@H]2C)C3(C)C)n1` [Example A55], the Ki was found to be 177 nM.

On to `CC1(C)c2[nH]nc(NC(=O)c3ccccn3)c2CN1C(=O)N1C[C@@H]2CCCN2C[C@@H]1CC1CCCCC1` [Example A56], for which the Ki is 18.1 nM.

Consider `CC1(C)CN2CCC[C@H]2CN1C(=O)N1Cc2c(NC(=O)c3cccc(Cl)c3)n[nH]c2C1(C)C` [Example A57], for which the Ki turned out to be 87.4 nM.

For `Cc1cc(C(=O)Nc2n[nH]c3c2CN(C(=O)N2C[C@@H]4CCCN4C[C@@H]2C)C3(C)C)nc(Cl)n1` [Example A58], the Ki was 35.3 nM.
